According to US8729017B2 (priority 2011, dated 2014):
Where two headings read alike, the source gives them in different places. Numbered stars: 1 amine (or outer) side, 2 acyl side, 3 side chain; on linkers, the order of the positions; unused ones are H or OH. Square brackets hold non-standard residues; d marks the D form. Side chains are listed from the residue outwards. Ends that are not written are not given here. Peptide text beside a SMILES is read from it. * marks the point of attachment. γGlu = O=C(O)[C@H](CCC(=O)[*:2])N[*:1]; Palmitoyl = CCCCCCCCCCCCCCCC(=O)*; Aib = CC(C)(N)C(=O)O

What was measured:
Type in all cases: cell-based
GIP receptor = target: T1, GIP receptor (Homo sapiens, UniProt P48546); assay: in vitro agonist activity at the GIP receptor (cAMP luciferase reporter, HEK293 cells); conditions: in vitro agonist activity; for EC50: read-out: EC50 (nM) at GIP receptor
T1 construct: expressed in transfected cells; host or cells: HEK293
T1 sequence (P48546 22-466): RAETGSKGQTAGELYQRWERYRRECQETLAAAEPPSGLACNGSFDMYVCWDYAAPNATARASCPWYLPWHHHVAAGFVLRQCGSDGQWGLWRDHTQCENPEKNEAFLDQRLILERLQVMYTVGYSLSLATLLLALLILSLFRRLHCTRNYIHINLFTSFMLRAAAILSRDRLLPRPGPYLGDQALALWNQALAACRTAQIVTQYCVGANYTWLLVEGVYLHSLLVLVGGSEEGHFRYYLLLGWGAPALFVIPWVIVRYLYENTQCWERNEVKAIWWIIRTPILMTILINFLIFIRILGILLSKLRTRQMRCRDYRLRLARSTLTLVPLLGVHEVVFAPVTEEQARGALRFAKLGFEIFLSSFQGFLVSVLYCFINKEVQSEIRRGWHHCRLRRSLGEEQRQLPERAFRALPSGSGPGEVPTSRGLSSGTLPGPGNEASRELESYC
Description: It is understood that a lower EC50 indicates higher activity or potency at the receptor. […] The ability of each peptide to induce cAMP was measured in a firefly luciferase-based reporter assay. […] At the end of the incubation, 100 μL of LucLite luminescence substrate reagent (Perkin Elmer, Wellesley, Mass.) were added to each well. […] In some instances, the in vitro agonist activity at the GIP receptor was also tested.

GLP-1 receptor = target: T2, GLP-1 receptor (Homo sapiens, UniProt P43220); assay: cAMP induction, firefly luciferase reporter assay in HEK293 cells co-transfected with the GLP-1 receptor; conditions: HEK293 cells, cAMP-responsive luciferase reporter, 5 hours incubation
T2 construct: expressed in transfected cells; host or cells: HEK293
Description: (§1) The ability of each peptide to induce cAMP was measured in a firefly luciferase-based reporter assay. […] At the end of the incubation, 100 μL of LucLite luminescence substrate reagent (Perkin Elmer, Wellesley, Mass.) were added to each well. […] In some instances, the in vitro agonist activity at the GIP receptor was also tested.

glucagon receptor = target: T3, glucagon receptor (Homo sapiens, UniProt P47871); assay: cAMP induction, firefly luciferase reporter assay in HEK293 cells co-transfected with the glucagon receptor; conditions: HEK293 cells, cAMP-responsive luciferase reporter, 5 hours incubation
T3 construct: expressed in transfected cells; host or cells: HEK293
Description: as §1

[1] = read-out: EC50 (nM) at GLP-1 receptor
[2] = read-out: EC50 (nM) at glucagon receptor

T3 sequence (P47871 26-477, species assumed): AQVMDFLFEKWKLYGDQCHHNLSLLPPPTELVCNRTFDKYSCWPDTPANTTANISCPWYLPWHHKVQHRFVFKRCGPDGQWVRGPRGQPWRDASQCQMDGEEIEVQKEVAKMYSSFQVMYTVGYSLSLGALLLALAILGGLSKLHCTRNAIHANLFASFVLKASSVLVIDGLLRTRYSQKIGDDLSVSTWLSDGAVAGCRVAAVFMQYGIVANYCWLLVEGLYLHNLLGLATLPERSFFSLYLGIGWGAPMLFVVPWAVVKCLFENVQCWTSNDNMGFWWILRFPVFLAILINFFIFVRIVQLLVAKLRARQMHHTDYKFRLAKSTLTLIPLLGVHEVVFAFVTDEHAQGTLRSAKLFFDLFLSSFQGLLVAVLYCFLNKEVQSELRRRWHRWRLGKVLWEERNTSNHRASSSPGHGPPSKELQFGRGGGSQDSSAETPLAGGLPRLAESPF
T2 sequence (P43220 24-463): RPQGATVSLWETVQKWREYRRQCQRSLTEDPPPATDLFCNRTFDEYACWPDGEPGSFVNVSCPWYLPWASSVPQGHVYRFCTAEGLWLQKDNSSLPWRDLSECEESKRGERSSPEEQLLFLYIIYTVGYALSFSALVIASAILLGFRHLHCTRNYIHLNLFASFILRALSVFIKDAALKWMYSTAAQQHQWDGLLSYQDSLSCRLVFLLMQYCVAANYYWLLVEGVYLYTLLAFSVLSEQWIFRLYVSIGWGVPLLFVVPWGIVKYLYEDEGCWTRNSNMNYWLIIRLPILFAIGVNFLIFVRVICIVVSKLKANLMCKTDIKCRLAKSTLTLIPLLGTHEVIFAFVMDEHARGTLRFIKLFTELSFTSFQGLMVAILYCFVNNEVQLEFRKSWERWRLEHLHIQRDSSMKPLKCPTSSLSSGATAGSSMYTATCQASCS

Compound: 51 (H[Aib]QGTFTSDYSKYLDEKRA[Aib]EFVC(PEG 40 kDa (thioether via iodoacetyl))WLL[Aib]GGPSSGAPPPS-NH2) [compound 51]
- EC50 (nM) at GIP receptor (GIP receptor): no activity

Compound: CCCCCCCCCCCCCCCC(=O)N[C@@H](CCC(=O)N[C@@H](CCC(=O)NCCCC[C@H](NC(=O)[C@H](CC(=O)O)NC(=O)[C@H](CO)NC(=O)[C@@H](NC(=O)[C@H](Cc1ccccc1)NC(=O)[C@@H](NC(=O)CNC(=O)[C@H](CCC(N)=O)NC(=O)C(C)(C)NC(=O)[C@@H](N)Cc1c[nH]cn1)[C@@H](C)O)[C@@H](C)O)C(=O)N[C@@H](CO)C(=O)N[C@@H](CCCCN)C(=O)N[C@@H](Cc1ccc(O)cc1)C(=O)N[C@@H](CC(C)C)C(=O)N[C@@H](CC(=O)O)C(=O)NC(C)(C)C(=O)N[C@@H](CCCNC(=N)N)C(=O)N[C@@H](C)C(=O)N[C@@H](C)C(=O)N[C@@H](CCC(N)=O)C(=O)N[C@@H](CC(=O)O)C(=O)N[C@@H](Cc1ccccc1)C(=O)N[C@H](C(=O)N[C@@H](CCC(N)=O)C(=O)N[C@@H](Cc1c[nH]c2ccccc12)C(=O)N[C@@H](CC(C)C)C(=O)N[C@@H](CCSC)C(=O)N[C@@H](CC(=O)O)C(=O)N[C@H](C(=O)N[C@@H](CCCCN)C(=O)N[C@H](C)C(=O)O)[C@@H](C)O)C(C)C)C(=O)O)C(=O)O [compound 32] (H-H[Aib]QGTFTSDK([γGlu-γGlu-Palmitoyl])SKYLD[Aib]RAAQDFVQWLMDTK[dA]-OH)
- EC50 (GLP-1 receptor): 0.008 nM
- EC50 (GIP receptor): 2.08 nM
- EC50 (glucagon receptor): 0.007 nM

Compound: CCCCCCCCCCCCCCCC(=O)N[C@@H](CCC(=O)N[C@@H](CCC(=O)NCCCC[C@H](NC(=O)[C@H](CC(=O)O)NC(=O)[C@H](CO)NC(=O)[C@@H](NC(=O)[C@H](Cc1ccccc1)NC(=O)[C@@H](NC(=O)CNC(=O)[C@H](CCC(N)=O)NC(=O)C(C)(C)NC(=O)[C@@H](N)Cc1c[nH]cn1)[C@@H](C)O)[C@@H](C)O)C(=O)N[C@@H](CO)C(=O)N[C@@H](CCCCN)C(=O)N[C@@H](Cc1ccc(O)cc1)C(=O)N[C@@H](CC(C)C)C(=O)N[C@@H](CC(=O)O)C(=O)NC(C)(C)C(=O)N[C@@H](CCCNC(=N)N)C(=O)N[C@@H](C)C(=O)N[C@@H](C)C(=O)N[C@@H](CCC(N)=O)C(=O)N[C@@H](CC(=O)O)C(=O)N[C@@H](Cc1ccccc1)C(=O)N[C@H](C(=O)N[C@@H](CCC(N)=O)C(=O)N[C@@H](Cc1c[nH]c2ccccc12)C(=O)N[C@@H](CC(C)C)C(=O)N[C@@H](CC(C)C)C(=O)NC(C)(C)C(=O)NCC(=O)N[C@@H](CCCNC(=N)N)C(=O)NCC(N)=O)C(C)C)C(=O)O)C(=O)O [compound 29] (H-H[Aib]QGTFTSDK([γGlu-γGlu-Palmitoyl])SKYLD[Aib]RAAQDFVQWLL[Aib]GRG-NH2)
- EC50 (GLP-1 receptor): 0.007 nM
- EC50 (GIP receptor): 1.65 nM
- EC50 (glucagon receptor): 0.014 nM

Compound: CC[C@H](C)[C@H](NC(=O)[C@H](Cc1ccccc1)NC(=O)[C@H](CC(C)C)NC(=O)[C@H](CCCNC(=N)N)NC(=O)[C@@H](NC(=O)[C@H](C)NC(=O)[C@H](CCC(N)=O)NC(=O)[C@H](CCC(=O)O)NC(=O)[C@H](CC(=O)O)NC(=O)[C@H](CC(C)C)NC(=O)[C@H](Cc1ccc(O)cc1)NC(=O)[C@H](CCCCN)NC(=O)[C@H](CO)NC(=O)[C@H](Cc1ccc(O)cc1)NC(=O)[C@H](CC(=O)O)NC(=O)[C@H](CO)NC(=O)[C@@H](NC(=O)[C@H](Cc1ccccc1)NC(=O)[C@@H](NC(=O)CNC(=O)[C@H](CCC(N)=O)NC(=O)[C@@H](CO)NC(=O)[C@@H](N)Cc1c[nH]cn1)[C@@H](C)O)[C@@H](C)O)C(C)C)C(=O)N[C@@H](CS)C(=O)N[C@@H](Cc1c[nH]c2ccccc12)C(=O)N[C@@H](CC(C)C)C(=O)N[C@@H](CC(C)C)C(=O)N[C@@H](CC(=O)O)C(=O)NCC(=O)NCC(=O)N1CCC[C@H]1C(=O)N[C@@H](CO)C(=O)N[C@@H](CO)C(=O)NCC(=O)N[C@@H](C)C(=O)N1CCC[C@H]1C(=O)N1CCC[C@H]1C(=O)N1CCC[C@H]1C(=O)N[C@@H](CO)C(N)=O [compound 62] (H-H[dS]QGTFTSDYSKYLDEQAVRLFICWLLDGGPSSGAPPPS-NH2; N-terminus assumed)
- EC50 (GLP-1 receptor; [1]): 0.006 nM
- EC50 (glucagon receptor; [2]): 0.132 nM

Compound: CCCCCCCCCCCCCCCC(=O)N[C@@H](CCC(=O)N[C@@H](CCC(=O)NCCCC[C@H](NC(=O)[C@H](CC(=O)O)NC(=O)[C@H](CO)NC(=O)[C@@H](NC(=O)[C@H](Cc1ccccc1)NC(=O)[C@@H](NC(=O)CNC(=O)[C@H](CCC(N)=O)NC(=O)C(C)(C)NC(=O)[C@@H](N)Cc1c[nH]cn1)[C@@H](C)O)[C@@H](C)O)C(=O)N[C@@H](CO)C(=O)N[C@@H](CCCCN)C(=O)N[C@@H](Cc1ccc(O)cc1)C(=O)N[C@@H](CC(C)C)C(=O)N[C@@H](CC(=O)O)C(=O)NC(C)(C)C(=O)N[C@@H](CCCNC(=N)N)C(=O)N[C@@H](C)C(=O)N[C@@H](C)C(=O)N[C@@H](CCC(N)=O)C(=O)N[C@@H](CC(=O)O)C(=O)N[C@@H](Cc1ccccc1)C(=O)N[C@H](C(=O)N[C@@H](CCC(N)=O)C(=O)N[C@@H](Cc1c[nH]c2ccccc12)C(=O)N[C@@H](CC(C)C)C(=O)N[C@@H](CCSC)C(=O)N[C@@H](CCCCN)C(=O)NCC(=O)N[C@@H](CCCNC(=N)N)C(=O)NCC(N)=O)C(C)C)C(=O)O)C(=O)O [compound 23] (H-H[Aib]QGTFTSDK([γGlu-γGlu-Palmitoyl])SKYLD[Aib]RAAQDFVQWLMKGRG-NH2; N-terminus assumed)
- EC50 (GLP-1 receptor): 0.004 nM
- EC50 (GIP receptor): 1.58 nM
- EC50 (glucagon receptor): 0.023 nM

Compound: 52 (H[Aib]QGTFTSDYSKYLDEK[Aib]AKEFVC(PEG 40 kDa (thioether via iodoacetyl))WLLDT-NH2) [compound 52]
- EC50 (nM) at GIP receptor (GIP receptor): no activity

Compound: 45 (H[Aib]QGTFTSDYSKYLDEKRA[Aib]EFVC(PEG 40 kDa)WLLDT-OH) [compound 45]
- EC50 (nM) at GIP receptor (GIP receptor): no activity

Compound: 47 (H[Aib]QGTFTSDYSKYLDEKRA[Aib]EFVC(PEG 40 kDa)WLLDGGPSSGAPPPS-NH2) [compound 47]
- EC50 (nM) at GIP receptor (GIP receptor): no activity

Compound: CCCCCCCCCCCCCCCC(=O)N[C@@H](CCC(=O)NCCCC[C@H](NC(=O)[C@H](CC(=O)O)NC(=O)[C@H](CO)NC(=O)[C@@H](NC(=O)[C@H](Cc1ccccc1)NC(=O)[C@@H](NC(=O)CNC(=O)[C@H](CCC(N)=O)NC(=O)[C@@H](CO)NC(=O)[C@@H](N)Cc1c[nH]cn1)[C@@H](C)O)[C@@H](C)O)C(=O)N[C@@H](CO)C(=O)N[C@@H](CCCCN)C(=O)N[C@@H](Cc1ccc(O)cc1)C(=O)N[C@@H](CC(C)C)C(=O)N[C@@H](CC(=O)O)C(=O)N[C@@H](CCC(=O)O)C(=O)N[C@@H](CCC(N)=O)C(=O)N[C@@H](C)C(=O)N[C@@H](C)C(=O)N[C@@H](CCCCN)C(=O)N[C@@H](CCC(=O)O)C(=O)N[C@@H](Cc1ccccc1)C(=O)N[C@H](C(=O)N[C@@H](CS)C(=O)N[C@@H](Cc1c[nH]c2ccccc12)C(=O)N[C@@H](CC(C)C)C(=O)N[C@@H](CC(C)C)C(=O)N[C@@H](CC(=O)O)C(=O)N[C@H](C(=O)N[C@@H](CCC(=O)O)C(N)=O)[C@@H](C)O)[C@@H](C)CC)C(=O)O [compound 65]
- EC50 (GLP-1 receptor; [1]): 0.024 nM
- EC50 (glucagon receptor; [2]): 0.028 nM

Compound: 38 (H[Aib]QGTFTSDYSKYLD[Aib]KRA[Aib]EFVC(PEG 40 kDa)WLLDT-NH2) [compound 38]
- EC50 (nM) at GIP receptor (GIP receptor): no activity

Compound: CCCCCCCCCCCCCCCC(=O)N[C@@H](CCC(=O)NCCCC[C@H](NC(=O)[C@H](CC(=O)O)NC(=O)[C@H](CO)NC(=O)[C@@H](NC(=O)[C@H](Cc1ccccc1)NC(=O)[C@@H](NC(=O)CNC(=O)[C@H](CCC(N)=O)NC(=O)[C@@H](CO)NC(=O)[C@@H](N)Cc1c[nH]cn1)[C@@H](C)O)[C@@H](C)O)C(=O)N[C@@H](CO)C(=O)N[C@@H](CCCCN)C(=O)N[C@@H](Cc1ccc(O)cc1)C(=O)N[C@@H](CC(C)C)C(=O)N[C@@H](CC(=O)O)C(=O)N[C@@H](CCC(=O)O)C(=O)N[C@@H](CCC(N)=O)C(=O)N[C@@H](C)C(=O)N[C@@H](C)C(=O)N[C@@H](CCCCN)C(=O)N[C@@H](CCC(=O)O)C(=O)N[C@@H](Cc1ccccc1)C(=O)N[C@H](C(=O)N[C@@H](CS)C(=O)N[C@@H](Cc1c[nH]c2ccccc12)C(=O)N[C@@H](CC(C)C)C(=O)N[C@@H](CC(C)C)C(=O)N[C@@H](CC(=O)O)C(=O)N[C@H](C(N)=O)[C@@H](C)O)[C@@H](C)CC)C(=O)O [compound 64]
- EC50 (GLP-1 receptor; [1]): 0.012 nM
- EC50 (glucagon receptor; [2]): 0.009 nM

Compound: 13 (H[Aib]QGTFTSDYSKYLDEKRA[Aib]EFVC(PEG 40 kDa)WLLDT-NH2) [compound 13]
- EC50 (nM) at GIP receptor (GIP receptor): no activity

Compound: 41 (H[Aib]QGTFTSDYSKYLDEKRA[Aib]EFVC(PEG 40 kDa)WLL[Aib]T-NH2) [compound 41]
- EC50 (nM) at GIP receptor (GIP receptor): no activity

Compound: 46 (H[Aib]QGTFTSDYSKYLD[Aib]KRA[Aib]EFVC(PEG 40 kDa)WLLDGGPSSGAPPPS-NH2) [compound 46]
- EC50 (nM) at GIP receptor (GIP receptor): no activity
